Measured values taken from PMC3734177, “Design, Synthesis, Evaluation and Thermodynamics of 1-Substituted Pyridylimidazo[1,5-a]Pyridine Derivatives as Cysteine Protease Inhibitors” (PLoS ONE, 2013).
Converted amounts (≈) assume the structure as drawn. “And” between values parts separate entries of the source, which are not always exact repeats. Equal entries are not always repeated. Where two headings read alike, the source gives them in different places.

Key:
[1] = target: T1, papain (Carica papaya, UniProt P00784); experiment: Cysteine protease inhibitory activity, papain with Bz-DL-Arg-pNA substrate; format: biochemical
T1 construct: To solutions of active papain (final concentration: 0.05 mM); purchased Sigma Chemical Co., St. Louis, MO, USA
T1 sequence (P00784 134-345): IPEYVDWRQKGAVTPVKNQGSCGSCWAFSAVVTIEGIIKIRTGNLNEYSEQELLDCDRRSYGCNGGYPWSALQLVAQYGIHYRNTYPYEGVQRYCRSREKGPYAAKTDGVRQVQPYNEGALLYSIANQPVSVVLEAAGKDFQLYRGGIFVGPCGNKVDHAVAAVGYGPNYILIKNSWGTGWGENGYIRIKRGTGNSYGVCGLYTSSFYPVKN
Protocol: The capacity of the 1-pyridylimidazo[1,5-a]pyridine derivatives to inhibit cysteine proteases was tested using papain as the model enzyme. The proteolytic activity of the reaction mixtures was determined using Bz-DL-Arg-pNA as the chromogenic substrate. To solutions of active papain (final concentration: 0.05 mM) were added concentrated solutions of the different derivatives to final concentrations of 0.2 mM. […] The same procedure was used at 32°C and 42°C for thermodynamics studies. The kinetic parameters for the substrate hydrolysis were determined by measuring the initial rate of enzymatic activity. The inhibition constant Ki was determined by Dixon method and also by the Lineweaver–Burk equation. The Km value was calculated from the double-reciprocal equation by fitting the data into the computer software Origin 6.1. The Lineweaver–Burk plot was used to determine the types of inhibition. For the kinetic analysis and rate constant determinations, the assays were carried out in triplicate, and the average value was considered throughout this work.

[2] = target: T1, papain; experiment: Thermodynamics analysis of papain inhibition (Van't Hoff); format: biochemical; conditions: Value at 37°C
Protocol: Free energy changes of inhibition of papain against 1- substituted pyridylimidazo[1,5-a] pyridine derivatives (ΔG) were determined by the equation, [drawing 1] (1)
Temperature dependence of the inhibition constants was used to determine the thermodynamic parameters. Changes in enthalpy (ΔH) were determined from the Van’t Hoff plots by using the equation, [drawing 2] (2)
Where ΔH is enthalpy change, R is gas constant, ΔS is entropy change and T is the absolute temperature. The entropy change was obtained from the equation, [drawing 3] (3)

[3] = tested on: Bacillus spp. (ATCC-14593); experiment: MIC, micro dilution method; format: cell-based; conditions: ATCC14593; Bacillus sp.
Protocol: (§1) The disk diffusion method was used for the preliminary antibacterial evaluation of 1-pyridylimidazo[1,5-a]pyridine derivatives. The MIC50 of these derivatives, showing inhibition in the preliminary tests, were further determined by the microtitre plate technique using micro dilution method. In brief, the bacterial strains (S. aureus, P. vulgaris, Group D Streptococci, Bacillus sp., E. coli, P. aeruginosa and S. morganii)) were grown and diluted to 2×10^5 colony-forming units (CFU)/ml in sodium phosphate buffer (SPB) containing 0.03% Luria–Bertani (LB) broth. The synthesized derivatives were dissolved in DMSO and their serial dilution was performed in 50 µL of LB medium in 96-well microtitre plate to achieve the required concentrations (0.1–10 µg/ml) with bacterial inoculums (5×10^4 CFU per well). DMSO was taken as negative control and Ceftriaxone and clotrimazole were taken as positive control. After incubation at 37°C overnight, the MICs were taken as the lowest inhibitor concentration at which the bacterial growth was inhibited. The average of three values was calculated and that was the MIC for the test material and bacterial strain. […]

[4] = tested on: Escherichia coli (ATCC-25922); experiment: MIC, micro dilution method; format: cell-based; conditions: ATCC25922, E. coli
Protocol: as §1

[5] = tested on: Proteus vulgaris (ATCC-29905); experiment: MIC, micro dilution method; format: cell-based; conditions: ATCC29905, P. vulgaris
Protocol: as §1

[6] = tested on: Pseudomonas aeruginosa (ATCC-27853); experiment: MIC, micro dilution method; format: cell-based; conditions: ATCC27853
Protocol: as §1

[7] = tested on: Staphylococcus aureus (ATCC-25923); experiment: MIC, micro dilution method; format: cell-based; conditions: ATCC25923, S. aureus
Protocol: as §1

[8] = tested on: Group D Streptococci (ATCC-12959); experiment: MIC, micro dilution method; format: cell-based
Protocol: (§2) The disk diffusion method was used for the preliminary antibacterial evaluation of 1-pyridylimidazo[1,5-a]pyridine derivatives. The MIC50 of these derivatives, showing inhibition in the preliminary tests, were further determined by the microtitre plate technique using micro dilution method. In brief, the bacterial strains (S. aureus, P. vulgaris, Group D Streptococci, Bacillus sp., E. coli, P. aeruginosa and S. morganii)) were grown and diluted to 2×10^5 colony-forming units (CFU)/ml in sodium phosphate buffer (SPB) containing 0.03% Luria–Bertani (LB) broth. The synthesized derivatives were dissolved in DMSO and their serial dilution was performed in 50 µL of LB medium in 96-well microtitre plate to achieve the required concentrations (0.1–10 µg/ml) with bacterial inoculums (5×10^4 CFU per well). DMSO was taken as negative control and Ceftriaxone and clotrimazole were taken as positive control. After incubation at 37°C overnight, the MICs were taken as the lowest inhibitor concentration at which the bacterial growth was inhibited. The average of three values was calculated and that was the MIC for the test material and bacterial strain.
(§3) For the agar plate count method, 25 µL aliquots of bacteria at 1×10^5 CFU/ml in SPB containing 0.03% LB broth were incubated with 25 µL of diluted compounds for 2 h at 37°C. The mixtures of bacteria and compounds were serially diluted 10-fold with SPB and plated on LB plates that were incubated at 37°C overnight. Bacterial colonies were enumerated the following day.

[9] = tested on: Serratia morganii (ATCC- 31665); experiment: MIC, micro dilution method; format: cell-based; conditions: ATCC31665
Protocol: as §2, §3

[10] = tested on: Bacillus spp. (ATCC-14593); experiment: MBC, sub cultivation from MIC plate; format: cell-based; conditions: ATCC14593, Bacillus sp.
Protocol: (§4) After having determined the MICs, bacterial strains from the wells of the microtitre plate with no visible bacterial growth were removed for serial sub cultivation of 2 µl into another new microtitre plate containing 100 µl of broth per well and further incubated for 24 h. The lowest concentration with no visible growth was defined as MBC [28], indicating 99.5% killing of the original inoculum. The absorbance of each well was measured at a wavelength of 620 nm by Microplate Manager 4.0 (Bio-Rad laboratories) and compared with a blank. Solvent (DMSO) was used as a negative control. Three replicates were done for each compound and experiment was repeated two times.

[11] = tested on: Escherichia coli (ATCC-25922); experiment: MBC, sub cultivation from MIC plate; format: cell-based; conditions: ATCC25922, E. coli
Protocol: as §4

[12] = tested on: Group D Streptococci (ATCC-12959); experiment: MBC, sub cultivation from MIC plate; format: cell-based
Protocol: as §4

[13] = tested on: Proteus vulgaris (ATCC-29905); experiment: MBC, sub cultivation from MIC plate; format: cell-based; conditions: ATCC29905, P. vulgaris
Protocol: as §4

[14] = tested on: Pseudomonas aeruginosa (ATCC-27853); experiment: MBC, sub cultivation from MIC plate; format: cell-based
Protocol: as §4

[15] = tested on: Serratia morganii (ATCC- 31665); experiment: MBC, sub cultivation from MIC plate; format: cell-based
Protocol: as §4

[16] = tested on: Staphylococcus aureus (ATCC-25923); experiment: MBC, sub cultivation from MIC plate; format: cell-based; conditions: ATCC25923, S. aureus
Protocol: as §4

[17] = tested on: Bacillus spp. (ATCC-14593); experiment: MIC, micro dilution method; format: cell-based; conditions: ATCC14593; Bacillus sp.; remark: listed apart in the source

Clc1ccccc1-c1nc(-c2ccccn2)c2ccccn12 [Compound 3c, 1-(2-pyridyl)-3-(2-chlorophenyl) imidazo[1,5-a]pyridine]
Ki ([1]; 32°C): 94.1 µM
Ki ([1]; 37°C): 90 µM
Ki ([1]; 42°C): 85.6 µM
Type of inhibition ([1]; Lineweaver–Burk plot): Non -Competitive
IC50 ([1]; papain): 94.5 µM
ΔG (free energy of binding) [2]: −5.71 Kcalmol^−1 and −5.71(±0.27) Kcalmol^−1
ΔS (entropy change) [2]: 69.88 (±2.65) Jmol-K^−1
MIC50 [3]: 0.9 µg/mL (≈ 2.94 µM)
MIC50 [4]: 0.6 µg/mL (≈ 1.96 µM)
MIC90 [4]: 1.1 µg/mL (≈ 3.6 µM)
MIC50 [5]: 1 µg/mL (≈ 3.27 µM)
MIC90 [5]: 1.9 µg/mL (≈ 6.21 µM)
MIC50 [6]: 1.2 µg/mL (≈ 3.92 µM)
MIC90 [6]: 2.2 µg/mL (≈ 7.19 µM)
MIC50 [7]: 1.2 µg/mL (≈ 3.92 µM)
MIC90 [7]: 2.4 µg/mL (≈ 7.85 µM)
MIC50 [8]: 0.9 µg/mL (≈ 2.94 µM)
MIC90 [8]: 1.7 µg/mL (≈ 5.56 µM)
MIC50 [9]: 1 µg/mL (≈ 3.27 µM)
MIC90 [9]: 1.9 µg/mL (≈ 6.21 µM)
MBC ([10]; read-out: MBC50): 1.9 µg/mL (≈ 6.21 µM)
MBC ([10]; read-out: MBC90): 3.8 µg/mL (≈ 12.4 µM)
MBC ([11]; read-out: MBC50): 1.2 µg/mL (≈ 3.92 µM)
MBC ([11]; read-out: MBC90): 2.3 µg/mL (≈ 7.52 µM)
MBC ([12]; read-out: MBC50): 1.8 µg/mL (≈ 5.89 µM)
MBC ([12]; read-out: MBC90): 3.4 µg/mL (≈ 11.1 µM)
MBC ([13]; read-out: MBC50): 2.2 µg/mL (≈ 7.19 µM)
MBC ([13]; read-out: MBC90): 4.3 µg/mL (≈ 14.1 µM)
MBC ([14]; ATCC27853, read-out: MBC50): 2.4 µg/mL (≈ 7.85 µM)
MBC ([14]; ATCC27853, read-out: MBC90): 4 µg/mL (≈ 13.1 µM)
MBC ([15]; ATCC31665, read-out: MBC50): 2.1 µg/mL (≈ 6.87 µM)
MBC ([15]; ATCC31665, read-out: MBC90): 4.1 µg/mL (≈ 13.4 µM)
MBC ([16]; read-out: MBC50): 2.4 µg/mL (≈ 7.85 µM)
MBC ([16]; read-out: MBC90): 4.7 µg/mL (≈ 15.4 µM)
MIC90 [17]: 1.7 µg/mL (≈ 5.56 µM)
